In patent US20250136578A1 (Kolm Therapeutics Inc., priority 2023, published 2025):

Tests used:
AR / CBP ternary complex = AR / CBP ternary complex (Homo sapiens, UniProt P10275+Q92793); experiment: Ternary complex formation assay (sandwich ELISA, AR capture, CBP antibody detection) in VCaP cell lysates; assay type: cell-based; conditions: treated 1.5 hours, rabbit CBP or p300 antibody detection, average, read-out: Average Ternary Complex
Summary of the method: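 Sandwich ELISA: plates were coated with anti-AR antibody (AR441) and given lysates of VCaP cells treated 1.5 h with bifunctional compound in charcoal-stripped serum. Co-captured CBP or p300 was probed with rabbit mAbs and HRP secondary. Chemifluorescent signal (ex 570/em 585) was read at 0, 5 and 15 min.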

VCaP cells = experiment: VCaP growth inhibition assay (CTG); assay type: cell-based; conditions: Homo sapiens, 216 h, 30 pM R1881, 9 days
Summary of the method: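 Growth was measured by CTG luminescence after a 9-day exposure of VCaP cells to compound (final 10 fM–100 nM, fivefold steps) in the presence of 30 pM final R1881, in phenol red-free DMEM/5% CSS. IC50 values were derived by nonlinear 4-parameter regression of RLU against concentration.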

AR / CBP ternary complex, sequence (P10275 whole entry): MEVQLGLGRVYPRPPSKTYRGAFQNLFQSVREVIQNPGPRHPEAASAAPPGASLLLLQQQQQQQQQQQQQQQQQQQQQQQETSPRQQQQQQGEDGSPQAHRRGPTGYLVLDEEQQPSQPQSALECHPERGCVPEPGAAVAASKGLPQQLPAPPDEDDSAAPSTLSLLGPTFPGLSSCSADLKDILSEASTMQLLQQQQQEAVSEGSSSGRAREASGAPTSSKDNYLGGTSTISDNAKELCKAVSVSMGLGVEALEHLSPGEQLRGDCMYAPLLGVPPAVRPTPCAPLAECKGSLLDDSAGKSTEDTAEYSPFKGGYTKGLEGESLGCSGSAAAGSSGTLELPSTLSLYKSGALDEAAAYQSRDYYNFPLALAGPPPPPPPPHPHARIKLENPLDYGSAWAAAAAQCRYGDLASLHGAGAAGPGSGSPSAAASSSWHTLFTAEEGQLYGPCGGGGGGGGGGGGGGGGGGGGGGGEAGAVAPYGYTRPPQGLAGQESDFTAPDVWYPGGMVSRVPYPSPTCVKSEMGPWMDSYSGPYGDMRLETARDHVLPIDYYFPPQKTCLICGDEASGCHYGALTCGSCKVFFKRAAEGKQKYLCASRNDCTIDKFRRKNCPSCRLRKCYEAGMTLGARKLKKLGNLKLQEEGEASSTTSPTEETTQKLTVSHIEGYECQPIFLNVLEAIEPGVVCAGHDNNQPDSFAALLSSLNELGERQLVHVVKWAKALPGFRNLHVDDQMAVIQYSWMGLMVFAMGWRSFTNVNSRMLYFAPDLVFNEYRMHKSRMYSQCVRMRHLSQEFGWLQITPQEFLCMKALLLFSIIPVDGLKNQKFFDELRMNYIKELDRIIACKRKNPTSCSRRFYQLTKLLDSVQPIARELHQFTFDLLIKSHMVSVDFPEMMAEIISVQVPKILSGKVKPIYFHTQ
AR / CBP ternary complex, sequence (Q92793 2-2442): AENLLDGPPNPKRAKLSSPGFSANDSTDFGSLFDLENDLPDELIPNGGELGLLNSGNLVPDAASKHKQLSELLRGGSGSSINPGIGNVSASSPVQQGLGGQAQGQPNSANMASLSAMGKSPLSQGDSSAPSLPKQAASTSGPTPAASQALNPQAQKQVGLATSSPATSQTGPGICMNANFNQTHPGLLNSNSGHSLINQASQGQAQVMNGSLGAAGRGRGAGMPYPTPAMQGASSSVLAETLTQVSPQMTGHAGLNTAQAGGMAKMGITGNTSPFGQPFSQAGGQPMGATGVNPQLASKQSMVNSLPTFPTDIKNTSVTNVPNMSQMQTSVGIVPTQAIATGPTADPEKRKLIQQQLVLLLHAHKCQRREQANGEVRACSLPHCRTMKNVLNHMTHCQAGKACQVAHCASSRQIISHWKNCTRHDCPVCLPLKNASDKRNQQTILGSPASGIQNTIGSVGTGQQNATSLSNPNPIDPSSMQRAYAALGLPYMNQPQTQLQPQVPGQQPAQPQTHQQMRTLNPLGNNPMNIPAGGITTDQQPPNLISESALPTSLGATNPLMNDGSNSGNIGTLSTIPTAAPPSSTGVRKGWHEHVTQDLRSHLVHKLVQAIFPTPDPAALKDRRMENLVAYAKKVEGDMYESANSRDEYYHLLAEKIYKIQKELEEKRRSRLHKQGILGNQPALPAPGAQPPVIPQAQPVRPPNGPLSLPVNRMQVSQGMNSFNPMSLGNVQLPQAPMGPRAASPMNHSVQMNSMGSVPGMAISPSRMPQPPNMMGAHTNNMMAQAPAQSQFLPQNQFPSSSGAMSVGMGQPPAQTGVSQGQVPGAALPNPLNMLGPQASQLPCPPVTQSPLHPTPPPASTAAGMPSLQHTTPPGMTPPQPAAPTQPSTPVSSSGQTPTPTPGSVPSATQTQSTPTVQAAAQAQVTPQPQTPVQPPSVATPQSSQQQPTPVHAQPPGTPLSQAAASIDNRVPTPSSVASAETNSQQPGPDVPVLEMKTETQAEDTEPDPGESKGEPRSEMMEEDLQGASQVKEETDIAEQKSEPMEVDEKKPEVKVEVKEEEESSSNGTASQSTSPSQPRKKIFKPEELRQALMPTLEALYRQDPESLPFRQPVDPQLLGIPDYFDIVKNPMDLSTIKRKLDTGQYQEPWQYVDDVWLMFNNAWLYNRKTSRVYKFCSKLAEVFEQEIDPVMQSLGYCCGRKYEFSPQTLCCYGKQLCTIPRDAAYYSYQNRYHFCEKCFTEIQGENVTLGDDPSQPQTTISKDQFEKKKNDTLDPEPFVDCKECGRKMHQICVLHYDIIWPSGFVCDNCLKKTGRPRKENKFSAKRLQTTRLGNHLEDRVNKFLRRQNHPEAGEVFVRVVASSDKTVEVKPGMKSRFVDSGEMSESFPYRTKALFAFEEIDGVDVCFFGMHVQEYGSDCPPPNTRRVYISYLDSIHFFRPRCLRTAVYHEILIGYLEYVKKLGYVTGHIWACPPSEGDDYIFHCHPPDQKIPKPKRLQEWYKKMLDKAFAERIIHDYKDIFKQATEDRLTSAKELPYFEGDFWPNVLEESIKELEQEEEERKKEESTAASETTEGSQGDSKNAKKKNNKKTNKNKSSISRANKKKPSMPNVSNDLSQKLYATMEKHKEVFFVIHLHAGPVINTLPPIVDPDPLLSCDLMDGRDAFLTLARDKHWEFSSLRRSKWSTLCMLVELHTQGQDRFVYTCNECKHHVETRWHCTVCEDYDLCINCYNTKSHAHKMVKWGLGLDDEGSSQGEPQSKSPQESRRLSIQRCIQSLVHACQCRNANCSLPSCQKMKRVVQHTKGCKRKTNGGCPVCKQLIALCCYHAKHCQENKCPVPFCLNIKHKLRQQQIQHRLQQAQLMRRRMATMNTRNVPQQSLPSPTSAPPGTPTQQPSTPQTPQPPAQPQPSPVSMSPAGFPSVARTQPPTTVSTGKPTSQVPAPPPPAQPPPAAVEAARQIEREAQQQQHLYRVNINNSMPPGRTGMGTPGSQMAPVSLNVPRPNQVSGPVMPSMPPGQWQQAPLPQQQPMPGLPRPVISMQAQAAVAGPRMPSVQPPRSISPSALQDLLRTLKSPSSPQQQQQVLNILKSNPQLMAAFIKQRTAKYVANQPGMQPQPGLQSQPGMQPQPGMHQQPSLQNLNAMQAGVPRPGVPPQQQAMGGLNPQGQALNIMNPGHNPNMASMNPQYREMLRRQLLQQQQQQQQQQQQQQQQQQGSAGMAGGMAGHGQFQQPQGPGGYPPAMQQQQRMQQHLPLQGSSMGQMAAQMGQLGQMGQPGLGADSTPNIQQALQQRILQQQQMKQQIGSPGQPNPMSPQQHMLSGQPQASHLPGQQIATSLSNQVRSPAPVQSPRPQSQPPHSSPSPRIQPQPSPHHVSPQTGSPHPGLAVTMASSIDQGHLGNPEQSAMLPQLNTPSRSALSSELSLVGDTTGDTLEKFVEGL

Row | SMILES | EC50 (AR / CBP ternary complex) [nM] | IC50 (VCaP cells) [nM]
1 | CC(=O)N1CCc2c(c(N3CCCc4cc(-c5cnn(C)c5)c(C(F)F)cc43)nn2[C@H]2CC[C@H](C3CCC4(CC3)CN(c3ccc(C(=O)N[C@H]5CC[C@H](Oc6ccc(C#N)c(Cl)c6)CC5)nn3)C4)CC2)C1 [Compound 241, 6-[7-[4-[5-acetyl-3-[7-(difluoromethyl)-6-(1-methylpyrazol-4-yl)-3,4-dihydro-2H-quinolin-1-yl]-6,7-dihydro-4H-pyrazolo[4,3-c]pyridin-1-yl]cyclohexyl]-2-azaspiro[3.5]nonan-2-yl]-N-[4-(3-chloro-4-cyano-phenoxy)cyclohexyl]pyridazine-3-carboxamide] | 1 to 10 | 0.1 to 1
2 | CC(=O)N1CCc2c(c(N3CCCc4cc(C5CC5)ncc43)nn2C2CCN(CC3CCN(c4ccc(C(=O)N[C@H]5CC[C@H](Oc6ccc(C#N)c(Cl)c6)CC5)nn4)CC3)CC2)C1 [Compound 108, 6-[4-[[4-[5-acetyl-3-(6-cyclopropyl-3,4-dihydro-2H-1,7-naphthyridin-1-yl)-6,7-dihydro-4H-pyrazolo[4,3-c]pyridin-1-yl]-1-piperidyl]methyl]-1-piperidyl]-N-[4-(3-chloro-4-cyano-phenoxy)cyclohexyl]pyridazine-3-carboxamide] | 1 to 10 | 0.1 to 1
3 | CC(=O)N1CCc2c(c(N3CCCc4cc(-c5cnn(C)c5)ncc43)nn2C2CCN(CC3CCN(c4ccc(C(=O)N[C@H]5CC[C@H](Oc6ccc(C#N)c(Cl)c6)CC5)nn4)CC3)CC2)C1 [Compound 66, rac-6-(4-((4-(5-acetyl-3-(6-(1-methyl-1H-pyrazol-4-yl)-3,4-dihydro-1,7-naphthyridin-1(2H)-yl)-4,5,6,7-tetrahydro-1H-pyrazolo[4,3-c]pyridin-1-yl)piperidin-1-yl)methyl)piperidin-1-yl)-N-((1r,4r)-4-(3-chloro-4-cyanophenoxy)cyclohexyl)pyridazine-3-carboxamide] | < 1 | 0.1 to 1
4 | CC(=O)N1CCc2c(c(N3CCCc4cc(-c5cnn(C)c5)c(C(F)F)cc43)nn2[C@H]2CC[C@H](OC3CN(c4ccc(C(=O)N[C@H]5CC[C@H](Oc6ccc(C#N)c(Cl)c6)CC5)nn4)C3)CC2)C1 [Compound 224, 6-[3-[4-[5-acetyl-3-[7-(difluoromethyl)-6-(1-methylpyrazol-4-yl)-3,4-dihydro-2H-quinolin-1-yl]-6,7-dihydro-4H-pyrazolo[4,3-c]pyridin-1-yl]cyclohexoxy]azetidin-1-yl]-N-[4-(3-chloro-4-cyanophenoxy)cyclohexyl]pyridazine-3-carboxamide] | < 1 | ≤ 0.1
5 | CC(=O)N1CCc2c(c(N3CCCc4cc(-c5cnn(C)c5)c(C)cc43)nn2C2CCN(C(=O)C3CCN(c4ccc(C(=O)N[C@H]5CC[C@H](Oc6ccc(C#N)c(Cl)c6)CC5)nn4)CC3)CC2)C1 [Compound 3, 6-[4-[4-[5-acetyl-3-[7-methyl-6-(1-methylpyrazol-4-yl)-3,4-dihydro-2H-quinolin-1-yl]-6,7-dihydro-4H-pyrazolo[4,3-c]pyridin-1-yl]piperidine-1-carbonyl]-1-piperidyl]-N-[4-(3-chloro-4-cyano-phenoxy)cyclohexyl]pyridazine-3-carboxamide] | < 1 | ≤ 0.1
6 | CC(=O)N1CCc2c(c(N3CCCc4cc(-c5cnn(C)c5)c(C(F)F)cc43)nn2[C@H]2CC[C@H](CN3CCN(c4ccc(C(=O)N[C@H]5CC[C@H](Oc6ccc(C#N)c(Cl)c6)CC5)nn4)CC3)CC2)C1 [Compound 209, 6-[4-[[4-[5-acetyl-3-[7-(difluoromethyl)-6-(1-methylpyrazol-4-yl)-3,4-dihydro-2H-quinolin-1-yl]-6,7-dihydro-4H-pyrazolo[4,3-c]pyridin-1-yl]cyclohexyl]methyl]piperazin-1-yl]-N-[4-(3-chloro-4-cyano-phenoxy)cyclohexyl]pyridazine-3-carboxamide] | < 1 | ≤ 0.1
7 | CC(=O)N1CCc2c(c(N3CCCc4cc(C#N)ccc43)nn2C2CCN(CC3(C)CCN(c4ccc(C(=O)N[C@H]5CC[C@H](Oc6ccc(C#N)c(Cl)c6)CC5)nn4)CC3)CC2)C1 [Compound 102, 6-[4-[[4-[5-acetyl-3-(6-cyano-3,4-dihydro-2H-quinolin-1-yl)-6,7-dihydro-4H-pyrazolo[4,3-c]pyridin-1-yl]-1-piperidyl]methyl]-4-methyl-1-piperidyl]-N-[4-(3-chloro-4-cyano-phenoxy)cyclohexyl]pyridazine-3-carboxamide] | < 1 | 0.1 to 1

Results, then the compound that gave them:

Row | EC50 (AR / CBP ternary complex) [nM] | IC50 (VCaP cells) [nM] | SMILES
8 | < 1 | 0.1 to 1 | CC(=O)N1CCc2c(c(N3CCCc4cc(-c5cnn(C)c5)c(C(F)F)cc43)nn2C2CC3(C2)CC2(CCN(c4ccc(C(=O)N[C@H]5CC[C@H](Oc6ccc(C#N)c(Cl)c6)CC5)nn4)CC2)C3)C1 [Compound 191, 6-[2-[5-acetyl-3-[7-(difluoromethyl)-6-(1-methylpyrazol-4-yl)-3,4-dihydro-2H-quinolin-1-yl]-6,7-dihydro-4H-pyrazolo[4,3-c]pyridin-1-yl]-9-azadispiro[3.1.56.14]dodecan-9-yl]-N-[4-(3-chloro-4-cyano-phenoxy)cyclohexyl] pyridazine-3-carboxamide]
9 | < 1 | ≤ 0.1 | C[C@@H]1CC(=O)Nc2cc(C3CCN(CC4CCN(c5ccc(C(=O)N[C@H]6CC[C@H](Oc7ccc(C#N)c(Cl)c7)CC6)nn5)CC4)CC3)cc(-c3ccc4c(c3)c(-c3cnn(C)c3)nn4C)c2N1 [Compound 87, N-[4-(3-chloro-4-cyano-phenoxy)cyclohexyl]-6-[4-[[4-[(4R)-4-methyl-6-[1-methyl-3-(1-methylpyrazol-4-yl)indazol-5-yl]-2-oxo-1,3,4,5-tetrahydro-1,5-benzodiazepin-8-yl]-1-piperidyl]methyl]-1-piperidyl]pyridazine-3-carboxamide]
10 | < 1 | ≤ 0.1 | CC(=O)N1CCc2c(c(-c3cccc4cc(-c5cnn(CCC6CC7(C6)CN(c6ccc(C(=O)N[C@H]8CC[C@H](Oc9ccc(C#N)c(Cl)c9)CC8)nn6)C7)c5)ncc34)nn2C)C1 [Compound 50, 6-[6-[2-[4-[8-(5-acetyl-1-methyl-6,7-dihydro-4H-pyrazolo[4,3-c]pyridin-3-yl)-3-isoquinolyl]pyrazol-1-yl]ethyl]-2-azaspiro[3.3]heptan-2-yl]-N-[4-(3-chloro-4-cyano-phenoxy)cyclohexyl]pyridazine-3-carboxamide]
11 | < 1 | 0.1 to 1 | CC(=O)N1CCc2c(c(N3CCCc4cc(C#N)ccc43)nn2C2CCN(C[C@H]3CCN(c4ccc(C(=O)N[C@H]5CC[C@H](Oc6ccc(C#N)c(Cl)c6)CC5)nn4)C[C@H]3C)CC2)C1 [Compound 103, 6-[4-[[4-[5-acetyl-3-(6-cyano-3,4-dihydro-2H-quinolin-1-yl)-6,7-dihydro-4H-pyrazolo[4,3-c]pyridin-1-yl]-1-piperidyl]methyl]-3-methyl-1-piperidyl]-N-[4-(3-chloro-4-cyano-phenoxy)cyclohexyl] pyridazine-3-carboxamide]
12 | < 1 | 0.1 to 1 | Cn1cc(-c2cc3c(cc2C(F)F)N(c2cc(C4CCN(CC5CCN(c6ccc(C(=O)N[C@H]7CC[C@H](Oc8ccc(C#N)c(Cl)c8)CC7)nn6)CC5)CC4)c4c(c2)n(C)c(=O)n4C)CCC3)cn1 [Compound 33, N-[4-(3-chloro-4-cyano-phenoxy)cyclohexyl]-6-[4-[[4-[6-[7-(difluoromethyl)-6-(1-methylpyrazol-4-yl)-3,4-dihydro-2H-quinolin-1-yl]-1,3-dimethyl-2-oxo-benzimidazol-4-yl]-1-piperidyl]methyl]-1-piperidyl]pyridazine-3-carboxamide]
13 | < 1 | ≤ 0.1 | CC(=O)N1CCc2c(c(-c3cccc4cc(-c5cnn(C)c5)ncc34)nn2C2CCN(CC3CCN(c4ccc(C(=O)N[C@H]5CC[C@H](Oc6ccc(C#N)c(Cl)c6)CC5)cn4)CC3)CC2)C1 [Compound 161, 6-[4-[[4-[5-acetyl-3-[3-(1-methylpyrazol-4-yl)-8-isoquinolyl]-6,7-dihydro-4H-pyrazolo[4,3-c]pyridin-1-yl]-1-piperidyl]methyl]-1-piperidyl]-N-[4-(3-chloro-4-cyano-phenoxy)cyclohexyl]pyridine-3-carboxamide]
14 | < 1 | ≤ 0.1 | COc1cc(O[C@H]2CC[C@H](NC(=O)c3ccc(N4CCC(C(=O)N5CCC(n6nc(N7CCCc8cc(-c9cnn(C)c9)c(C(F)F)cc87)c7c6CCN(C(C)=O)C7)CC5)CC4)cc3)CC2)ccc1C#N [Compound 160, 4-[4-[4-[5-acetyl-3-[7-(difluoromethyl)-6-(1-methylpyrazol-4-yl)-3,4-dihydro-2H-quinolin-1-yl]-6,7-dihydro-4H-pyrazolo[4,3-c]pyridin-1-yl]piperidine-1-carbonyl]-1-piperidyl]-N-[4-(4-cyano-3-methoxy-phenoxy)cyclohexyl]benzamide]
15 | < 1 | ≤ 0.1 | CC(=O)N1CCc2c(c(N3CCCc4cc(-c5cnn(C)c5)c(C(F)F)cc43)nn2C2CCN(C3CCC4(CC3)CC(Oc3ccc(C(=O)N[C@H]5CC[C@H](Oc6ccc(C#N)c(Cl)c6)CC5)nn3)C4)CC2)C1 (stereo partly drawn) [Compound 245, 6-[7-[4-[5-acetyl-3-[7-(difluoromethyl)-6-(1-methylpyrazol-4-yl)-3,4-dihydro-2H-quinolin-1-yl]-6,7-dihydro-4H-pyrazolo[4,3-c]pyridin-1-yl]-1-piperidyl]spiro[3.5]nonan-2-yl]oxy-N-[4-(3-chloro-4-cyano-phenoxy)cyclohexyl]pyridazine-3-carboxamide]
